Experimental data reported in patent US9884832B2 (priority 2011, dated 2018).

Target: AM2 S31 (wild-type serine at position 31 in the M2 protein), influenza virus A/Udorn/72 (Influenza A virus, UniProt P0DOF5)
Test: cell-based
Conditions: 100 uM; Xenopus oocytes; activity range class; read-out: S31 OOcyte Inhibition at 100 uM (%)

Sequence of AM2 S31 (wild-type serine at position 31 in the M2 protein), influenza virus A/Udorn/72 (P0DOF5 whole entry, looked up): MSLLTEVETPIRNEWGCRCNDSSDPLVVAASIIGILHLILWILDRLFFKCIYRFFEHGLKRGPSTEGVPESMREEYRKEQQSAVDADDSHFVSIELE

SMILES	inhibition at 100 µM [%]
Clc1ccc2[nH]c(CNC34CC5CC(CC(C5)C3)C4)nc2c1 [Example 181a, Adamantan-1-yl-(5-chloro-1H-benzoimidazol-2-ylmethyl)-amine]	0 to 30
Cc1oc(-c2cccs2)nc1CNC12CC3CC(CC(C3)C1)C2 [Example 145a, N-((5-methyl-2-(thiophen-2-yl)oxazol-4-yl)methyl)adamantan-1-amine]	0 to 30
Cn1cc(C(F)(F)F)c(-c2ccc(CNC34CC5CC(CC(C5)C3)C4)s2)n1 [Example 155a, N-((5-(1-methyl-4-(trifluoromethyl)-1H-pyrazol-3-yl)thiophen-2-yl)methyl)adamantan-1-amine]	0 to 30
Brc1csc(CNC23CC4CC(CC(C4)C2)C3)c1 [Example 105a, N-((4-bromothiophen-2-yl)methyl)adamantan-1-amine]	31 to 95
Brc1ccc(-c2cc(CNC34CC5CC(CC(C5)C3)C4)no2)cc1 [Example 121a, N-((5-(4-bromophenyl)isoxazol-3-yl)methyl)adamantan-1-amine]	0 to 30
Brc1ccc(-c2ccc(CNC34CC5CC(CC(C5)C3)C4)s2)s1 [Example 159a, N-((5′-bromo-[2,2′-bithiophen]-5-yl)methyl)adamantan-1-amine]	0 to 30
OC12CC3CC(C1)CC(NCc1cc(-c4ccccc4)on1)(C3)C2 [Example 194a, (1s,3r,5R,7S)-3-(((5-phenylisoxazol-3-yl)methyl)amino)adamantan-1-ol]	0 to 30
Cc1ccc(CNC23CC4CC(CC(C4)C2)C3)cc1 [Example 8a, N-(4-Methylbenzyl)adamantan-1-amine]	31 to 95
Brc1ccc(-c2cc(CNC34CC5CC(CC(C5)C3)C4)on2)cc1 [Example 117a, N-((3-(4-bromophenyl)isoxazol-5-yl)methyl)adamantan-1-amine]	0 to 30
c1csc(-c2csc(CNC34CC5CC(CC(C5)C3)C4)c2)c1 [Example 140a, Adamantan-1-yl-[2,3′]bithiophenyl-5′-ylmethyl-amine]	0 to 30
c1cc(-c2ccc(CNC34CC5CC(CC(C5)C3)C4)s2)co1 [Example 137a, N-((5-(Furan-3-yl)thiophen-2-yl)methyl)adamantan-1-amine]	0 to 30
FC(F)(F)c1ccc(-c2nc(CNC34CC5CC(CC(C5)C3)C4)no2)cc1 [Example 129a, N-((5-(4-(trifluoromethyl)phenyl)-1,2,4-oxadiazol-3-yl)methyl)adamantan-1-amine]	0 to 30
c1ccn2c(CNC34CC5CC(CC(C5)C3)C4)cnc2c1 [Example 203a, Adamantan-1-yl-imidazo[1,2-a]pyridin-3-ylmethyl-amine]	31 to 95
Cn1c(CNC23CC4CC(CC(C4)C2)C3)cc2sccc21 [Example 172a, Adamantan-1-yl-(4-methyl-4H-thieno[3,2-b]pyrrol-5-ylmethyl)-amine]	0 to 30
Cc1ccc(-c2nc(CNC34CC5CC(CC(C5)C3)C4)no2)cc1 [Example 128a, N-((5-(p-tolyl)-1,2,4-oxadiazol-3-yl)methyl)adamantan-1-amine]	0 to 30
COc1ccc2[nH]c(CNC34CC5CC(CC(C5)C3)C4)cc2c1 [Example 182a]	0 to 30
Cc1nc(-c2ccc(CNC34CC5CC(CC(C5)C3)C4)s2)cs1 [Example 156a, N-((5-(2-methylthiazol-4-yl)thiophen-2-yl)methyl)adamantan-1-amine]	0 to 30
Brc1ncc(CNC23CC4CC(CC(C4)C2)C3)s1 [Example 104a, N-((2-bromothiazol-5-yl)methyl)adamantan-1-amine]	0 to 30
COc1ccc(-c2cc(CNC34CC5CC(CC(C5)C3)C4)no2)cc1 [Example 110a, N-((5-(4-methoxyphenyl)isoxazol-3-yl)methyl)adamantan-1-amine]	0 to 30
CCOc1ccc(CNC23CC4CC(CC(C4)C2)C3)cc1 [Example 1a, Adamantan-1-yl-(4-ethoxy-benzyl)-amine]	0 to 30
c1csc(CNC23CC4CC(CC(C4)C2)C3)n1 [Example 71a, Adamantan-1-yl-thiazol-2-ylmethyl-amine]	31 to 95
Oc1cc(OCc2ccccc2)ccc1CNC12CC3CC(CC(C3)C1)C2 [Example 37a, 2-(Adamantan-1-ylaminomethyl)-5-benzyloxy-phenol]	31 to 95
c1ccc(-c2ncc(CNC34CC5CC(CC(C5)C3)C4)cn2)nc1 [Example 64a, N-((2-(pyridin-2-yl)pyrimidin-5-yl)methyl)adamantan-1-amine]	0 to 30
OCc1cc(Br)ccc1CNC12CC3CC(CC(C3)C1)C2 [Example 52a, [2-(Adamantan-1-ylaminomethyl)-5-bromo-phenyl]methanol]	0 to 30

Same assay, conditions: Table 1; 100 uM; Xenopus oocytes, pH 5.5, -20 mV; read-out: S31 OOcyte Inhibition at 100 uM (%)

SMILES	inhibition at 100 µM [%]
CC(NC1C2CC3CC(C2)CC1C3)c1ccc(O)cc1O (stereo not drawn) [Example 102, 4-[1-(Adamantan-2-ylamino)-ethyl]-benzene-1,3-diol]	31 to 95
c1csc(-c2ccc(CNC34CC5CC(CC(C5)C3)C4)s2)c1 [Example 78, N-([2,2′-Bithiophen]-5-ylmethyl)adamantan-1-amine]	0 to 30
c1ccc2sc(CNC34CC5CC(CC(C5)C3)C4)nc2c1 [Example 91, Adamantan-1-yl-benzothiazol-2-ylmethyl-amine]	0 to 30
CC1(C)C2CCC(CNCc3ccc(O)cc3O)C1C2 (stereo not drawn) [Example 114, 4-{[(6,6-Dimethyl-bicyclo[3.1.1]hept-2-ylmethyl)-amino]methyl}-benzene-1,3-diol]	31 to 95
c1nc2ccc(CNC34CC5CC(CC(C5)C3)C4)cc2[nH]1 [Example 94, Adamantan-1-yl-(3H-benzoimidazol-5-ylmethyl)-amine]	0 to 30
Oc1ccc(/C=N/C23CC4CC(CC(C4)C2)C3)c(O)c1 [Example 7]	31 to 95
Clc1c(CNC23CC4CC(CC(C4)C2)C3)nc2sccn12 [Example 87, Adamantan-1-yl-(5-chloro-imidazo[2,1-b]thiazol-6-ylmethyl)-amine]	0 to 30
OC1CCN(C2C3CC4CC(C3)CC2C4)CC1 (stereo not drawn) [Example 104, 1-Adamantan-2-yl-piperidin-4-ol]	0 to 30
Nc1ncc(CNC23CC4CC(CC(C4)C2)C3)cn1 [Example 75, 5-(Adamantan-1-ylaminomethyl)-pyrimidin-2-ylamine]	31 to 95
CC(NCc1ccc(O)cc1)C12CC3CC(CC(C3)C1)C2 (stereo not drawn) [Example 4, 4-[(1-Adamantan-1-yl-ethylamino)-methyl]-phenol]	31 to 95
c1cc(CNC23CC4CC(CC(C4)C2)C3)c2cc[nH]c2c1 [Example 96, Adamantan-1-yl-(1H-indol-4-ylmethyl)-amine]	31 to 95
c1coc(COc2ccc(CNC34CC5CC(CC(C5)C3)C4)cc2)c1 [Example 21, Adamantan-1-yl-[4-(furan-2-ylmethoxy)-benzyl]-amine]	31 to 95
COc1cc(O)cc(OC)c1CNC12CC3CC(CC(C3)C1)C2 [Example 66, 4-(Adamantan-1-ylaminomethyl)-3,5-dimethoxy-phenol]	31 to 95
O=[N+]([O-])c1ccc(CNC23CC4CC(CC(C4)C2)C3)cc1 [Example 19, Adamantan-1-yl-(4-nitro-benzyl)-amine]	31 to 95

Same assay, conditions: Table 3; 100 uM; Xenopus oocytes, pH 5.5, -20 mV; read-out: S31 OOcyte Inhibition at 100 uM (%)

SMILES	inhibition at 100 µM [%]
C1CCC(c2nc(CNC34CC5CC(CC(C5)C3)C4)no2)CC1 [Example 24b]	31 to 95
CCCc1nc(CNC23CC4CC(CC(C4)C2)C3)no1 [Example 29b, N-((5-propyl-1,2,4-oxadiazol-3-yl)methyl)adamantan-1-amine]	0 to 30
CC(C)(C)c1ncc(CNC23CC4CC(CC(C4)C2)C3)s1 [Example 20b, N-((2-(tert-butyl)thiazol-5-yl)methyl)adamantan-1-amine]	0 to 30
C[Si](C)(C)c1ccc(CNC23CC4CC(CC(C4)C2)C3)s1 [Example 75b, Adamantan-1-yl-(5-trimethylsilanyl-thiophen-2-ylmethyl)-amine]	0 to 30
Clc1nc(CNC23CC4CC(CC(C4)C2)C3)ns1 [Example 10b, N-((5-chloro-1,2,4-thiadiazol-3-yl)methyl)adamantan-1-amine]	31 to 95
Clc1ncc(CNC23CC4CC(CC(C4)C2)C3)s1 [Example 13b, N-((2-chlorothiazol-5-yl)methyl)adamantan-1-amine]	31 to 95
COc1ccccc1-c1noc(CNC23CC4CC(CC(C4)C2)C3)n1 [Example 30b, N-((3-(2-methoxyphenyl)-1,2,4-oxadiazol-5-yl)methyl)adamantan-1-amine]	0 to 30
CC(C)Cc1nc(CNC23CC4CC(CC(C4)C2)C3)no1 [Example 22b, N-((5-isobutyl-1,2,4-oxadiazol-3-yl)methyl)adamantan-1-amine]	0 to 30
COc1ncc(CNC23CC4CC(CC(C4)C2)C3)c(OC)n1 [Example 64b, N-((2,4-dimethoxypyrimidin-5-yl)methyl)adamantan-1-amine]	0 to 30
CCOC(=O)CN(C)c1ncc(CNC23CC4CC(CC(C4)C2)C3)cn1 [Example 60b, N-((2-methyl(ethylcarboxymethyl)aminopyrimidin-5-yl)methyl)adamantan-1-amine]	0 to 30
Brc1ccsc1CNC12CC3CC(CC(C3)C1)C2 [Example 47b, N-((3-Bromothiophen-2-yl)methyl)adamantan-1-amine]	31 to 95
Cc1csc(-c2ccc(CNC34CC5CC(CC(C5)C3)C4)s2)c1 [Example 51b, N-((4′-Methyl-[2,2′-bithiophen]-5-yl)methyl)adamantan-1-amine]	0 to 30
CSc1ccccc1-c1cc(CNC23CC4CC(CC(C4)C2)C3)no1 [Example 42b, N-((5-(2-(methylthio)phenyl)isoxazol-3-yl)methyl)adamantan-1-amine]	0 to 30
